From article PMC7402526, “An in vitro quantitative systems pharmacology approach for deconvolving mechanisms of drug-induced, multilineage cytopenias” (PLoS Computational Biology, 2020)

What was measured:
[1] = tested on: multi-potent progenitors (MPPs); test: MLTA, MPPs: concentration-response and QSP model fit; format: cell-based, human; conditions: Homo sapiens, 144 h
How it was run: (§1)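 Drug was added at time 0 to thawed human bone marrow CD34+ cells in SFEM II plus a cytokine cocktail. After 6 days at 37°C, subsets were counted by surface-marker flow with TruCount beads. Vehicle-normalized, donor-pooled data then fed an Emax model separating anti-proliferative from cell-killing effects.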

[2] = tested on: granulocyte-macrophage progenitor (GMPs); test: MLTA, GMPs: concentration-response and QSP model fit; format: cell-based, human; conditions: Homo sapiens, 144 h, 6 days, normalized to vehicle control, read-out: GMPs normalized cell count
How it was run: as §1

granulocytes (Gran-lin) = test: MLTA, Gran: concentration-response and QSP model fit; format: cell-based, human
How it was run: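 Six-day flow cytometry counts, bead-normalized and expressed relative to the mean of six vehicle wells, underlie each value. Cells were primary human bone marrow CD34+ cells cultured in SFEM II with cytokines promoting multi-lineage differentiation and self-renewal.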

[3] = tested on: late erythroid cells (Eryth II); test: MLTA, ErythII: concentration-response and QSP model fit; format: cell-based, human; conditions: Homo sapiens, 144 h
How it was run: as §1

MK cells (MK-lin) = test: MLTA, MK: concentration-response and QSP model fit; format: cell-based, human; conditions: Homo sapiens, 144 h
How it was run: as §1

[4] = tested on: lymphocyte progenitors (LymP); test: MLTA, LymP: concentration-response and QSP model fit; format: cell-based, human; conditions: Homo sapiens, Lymphocyte, 144 h
How it was run: as §1

[5] = tested on: total viable cells (totalViableCells); test: MLTA, total live cells concentration-response; format: cell-based; conditions: Homo sapiens, 144 h, 6 days, normalized to vehicle control, read-out: total_live normalized cell count
How it was run: (§2)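 Freeze-thawed primary human bone marrow CD34+ cells in SFEM II with cytokine cocktail, drug added day 0, 6 days at 37°C, 5% CO2. Live/dead counts by 17-parameter flow cytometry with DAPI exclusion, bead-normalized, volume-corrected to cells/mL. Normalized per donor to mean of six vehicle wells; 2–7 donors pooled.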

[6] = tested on: total dead cells (totalDeadCells); test: MLTA, total dead cells concentration-response; format: cell-based; conditions: Homo sapiens, 144 h, 6 days, normalized to vehicle control, read-out: total_dead normalized cell count
How it was run: as §2

[7] = tested on: human bone marrow-derived CD34+ cells differentiated into multiple hematopoietic lineages; test: MLTA, overall effects across hematopoietic lineages; format: cell-based; conditions: QSP model fit; EmaxT > 1.0 = cell-killing
Experimental: A custom optimized cytokine cocktail was developed using commercially available cytokines (Peprotech, New Jersey) to facilitate simultaneous multi-lineage differentiation and self-renewal of freeze-thawed primary human bone marrow-derived CD34+ cells in SFEM II media (cells and media from StemCell Technologies, Vancouver). Cultures were carried out in ultra-low attachment 96-well plates (Corning, New York) with test article added on day 0 and cultured at 37°C, 85% relative humidity, and 5% CO2 for six days before interrogating drug impact via 17-parameter flow cytometry.
The flow cytometry panel used to define hematopoietic subsets was composed of CD34-PECy7, CD90-PECY5, CD38-AF488, CD371-PE, CD45Ra-BV421, CD14-BV605, CD42b-AF647, CD10-PEDazzle594, CD235a-PerCPCy5.5 (BioLegend, California), CD15-BUV395, CD41a-APCH7, CD71-BV786 (BD Biosciences, California), and DAPI for dead cell exclusion (ThermoFisher, California). In short, Day 6 cells were harvested, FcR-blocked (FcR binding inhibitor, ThermoFisher), surface-stained, then analyzed in a buffer containing TruCount Control Beads using a BD LSR Fortessa SORP fitted with a high-throughput sampler (BD Biosciences, California). Data was analyzed in Diva 6.0.2 and exported to CSV where after all cell data was transformed to cell per mL then normalized on a per-donor basis to untreated control wells to determine drug impact.
Donor material was collected and cultured as described above. The number of replicate donor samples per drug ranged from 2–7 and varied per drug (S1 Table). Drug treatment was added at time 0 and cells were maintained in culture for 6 days. Concentrations tested for each drug compound are contained in S1 Table. Concentrations were selected to span a range that is clinically useful. Following treatment, cell populations were measured using flow cytometry. We extracted cell counts from flow cytometry data, normalized to bead counts, and corrected for well volume.
Each well was normalized to the average of six vehicle control wells. For drugs that were tested across multiple runs of the assay, vehicle-normalized donor data were pooled, and we used the average of these pooled data for further modeling. Normalized data used as model inputs are included in S1 Table.
We implemented drug effects using an Emax model for the drug’s effect on each cell type. The 13 maximum effect parameters (EmaxT,C) are unitless and can vary between 0 and 2 and where a subscript, C, represents one of the previously described 13 cell types. We adapted a traditional Emax model using the equations below. We interpreted EmaxT values less than or equal to one as anti-proliferative, and EmaxT values greater than one as indicating a cell-killing mechanism in addition to anti-proliferation. The relationships for these effects are included in the model using the following equations. Eq 2 describes the drug anti-proliferative effect in the net proliferation rate for a given cell type. Eq 3 describes the cell-killing EmaxCK effect.

Structure (SMILES): CC(=O)O[C@H]1C(=O)[C@@]2(C)[C@H]([C@H](OC(=O)c3ccccc3)[C@]3(O)C[C@H](OC(=O)[C@H](O)[C@@H](NC(=O)c4ccccc4)c4ccccc4)C(C)=C1C3(C)C)[C@]1(OC(C)=O)CO[C@@H]1C[C@@H]2O [paclitaxel]
- activity at 0.0002 µM ([1]; dose 0.2 nM, 6 days, normalized to vehicle control, read-out: MPPs normalized cell count): 78.7%
- activity at 0.001 µM ([1]; dose 1 nM, 6 days, normalized to vehicle control, read-out: MPPs normalized cell count): 90%
- activity at 0.005 µM ([1]; dose 5 nM, 6 days, normalized to vehicle control, read-out: MPPs normalized cell count): 71.3%
- activity at 0.025 µM ([1]; dose 25 nM, 6 days, normalized to vehicle control, read-out: MPPs normalized cell count): 28%
- activity at 0.1 µM ([1]; dose 100 nM, 6 days, normalized to vehicle control, read-out: MPPs normalized cell count): 2.32%
- activity at 0.5 µM ([1]; dose 500 nM, 6 days, normalized to vehicle control, read-out: MPPs normalized cell count): 0.649%
- activity at 2.5 µM ([1]; dose 2500 nM, 6 days, normalized to vehicle control, read-out: MPPs normalized cell count): 0.406%
- Emax ([1]; parameter from QSP model fitting, read-out: Emax_drug_MPP): 0.18%
- activity at 0.0002 µM ([2]; dose 0.2 nM): 126%
- activity at 0.001 µM ([2]; dose 1 nM): 119%
- activity at 0.005 µM ([2]; dose 5 nM): 109%
- activity at 0.025 µM ([2]; dose 25 nM): 3.34%
- activity at 0.1 µM ([2]; dose 100 nM): 0.101%
- activity at 0.5 µM ([2]; dose 500 nM): 0.687%
- activity at 2.5 µM ([2]; dose 2500 nM): 0.327%
- EC50 (granulocytes (Gran-lin); Homo sapiens, 144 h, QSP model fit of 6-day MLTA data): 15.8 nM
- activity at 0.0002 µM (granulocytes (Gran-lin); Homo sapiens, 144 h, dose 0.2 nM, 6 days, normalized to vehicle control, read-out: Gran normalized cell count): 104%
- activity at 0.001 µM (granulocytes (Gran-lin); Homo sapiens, 144 h, dose 1 nM, 6 days, normalized to vehicle control, read-out: Gran normalized cell count): 122%
- activity at 0.005 µM (granulocytes (Gran-lin); Homo sapiens, 144 h, dose 5 nM, 6 days, normalized to vehicle control, read-out: Gran normalized cell count): 92.8%
- activity at 0.025 µM (granulocytes (Gran-lin); Homo sapiens, 144 h, dose 25 nM, 6 days, normalized to vehicle control, read-out: Gran normalized cell count): 0.105%
- activity at 0.1 µM (granulocytes (Gran-lin); Homo sapiens, 144 h, dose 100 nM, 6 days, normalized to vehicle control, read-out: Gran normalized cell count): 0.0692%
- activity at 0.5 µM (granulocytes (Gran-lin); Homo sapiens, 144 h, dose 500 nM, 6 days, normalized to vehicle control, read-out: Gran normalized cell count): 0.0215%
- activity at 2.5 µM (granulocytes (Gran-lin); Homo sapiens, 144 h, dose 2500 nM, 6 days, normalized to vehicle control, read-out: Gran normalized cell count): 0.0279%
- Emax (granulocytes (Gran-lin); Homo sapiens, 144 h, parameter from QSP model fitting, read-out: Emax_drug_Gran): 236%
- EmaxCK,Gran (granulocytes (Gran-lin); cell-killing component, max(0, EmaxT-1)): 1.360 day⁻¹
- EC50 ([3]; QSP model fit of 6-day MLTA data, read-out: EC50ErythII): 20.2 nM
- activity at 0.0002 µM ([3]; dose 0.2 nM, 6 days, normalized to vehicle control, read-out: ErythII normalized cell count): 90.9%
- activity at 0.001 µM ([3]; dose 1 nM, 6 days, normalized to vehicle control, read-out: ErythII normalized cell count): 107%
- activity at 0.005 µM ([3]; dose 5 nM, 6 days, normalized to vehicle control, read-out: ErythII normalized cell count): 56.5%
- activity at 0.025 µM ([3]; dose 25 nM, 6 days, normalized to vehicle control, read-out: ErythII normalized cell count): 0.128%
- activity at 0.1 µM ([3]; dose 100 nM, 6 days, normalized to vehicle control, read-out: ErythII normalized cell count): 0.0395%
- activity at 0.5 µM ([3]; dose 500 nM, 6 days, normalized to vehicle control, read-out: ErythII normalized cell count): 0.0174%
- activity at 2.5 µM ([3]; dose 2500 nM, 6 days, normalized to vehicle control, read-out: ErythII normalized cell count): 0.00196%
- Emax ([3]; parameter from QSP model fitting, read-out: Emax_drug_ErythroidII): 7.1%
- EC50 (MK cells (MK-lin); QSP model fit of 6-day MLTA data): 51.7 nM
- activity at 0.0002 µM (MK cells (MK-lin); dose 0.2 nM, 6 days, normalized to vehicle control, read-out: MK normalized cell count): 108%
- activity at 0.001 µM (MK cells (MK-lin); dose 1 nM, 6 days, normalized to vehicle control, read-out: MK normalized cell count): 110%
- activity at 0.005 µM (MK cells (MK-lin); dose 5 nM, 6 days, normalized to vehicle control, read-out: MK normalized cell count): 111%
- activity at 0.025 µM (MK cells (MK-lin); dose 25 nM, 6 days, normalized to vehicle control, read-out: MK normalized cell count): 9.64%
- activity at 0.1 µM (MK cells (MK-lin); dose 100 nM, 6 days, normalized to vehicle control, read-out: MK normalized cell count): 0.962%
- activity at 0.5 µM (MK cells (MK-lin); dose 500 nM, 6 days, normalized to vehicle control, read-out: MK normalized cell count): 0.754%
- activity at 2.5 µM (MK cells (MK-lin); dose 2500 nM, 6 days, normalized to vehicle control, read-out: MK normalized cell count): 0.792%
- Emax (MK cells (MK-lin); parameter from QSP model fitting, read-out: Emax_drug_MK): 25.9%
- activity at 0.0002 µM ([4]; dose 0.2 nM, 6 days, normalized to vehicle control, read-out: LymP normalized cell count): 122%
- activity at 0.001 µM ([4]; dose 1 nM, 6 days, normalized to vehicle control, read-out: LymP normalized cell count): 143%
- activity at 0.005 µM ([4]; dose 5 nM, 6 days, normalized to vehicle control, read-out: LymP normalized cell count): 61.3%
- activity at 0.025 µM ([4]; dose 25 nM, 6 days, normalized to vehicle control, read-out: LymP normalized cell count): 9.53%
- activity at 0.1 µM ([4]; dose 100 nM, 6 days, normalized to vehicle control, read-out: LymP normalized cell count): 5.4%
- activity at 0.5 µM ([4]; dose 500 nM, 6 days, normalized to vehicle control, read-out: LymP normalized cell count): 7.34%
- activity at 2.5 µM ([4]; dose 2500 nM, 6 days, normalized to vehicle control, read-out: LymP normalized cell count): 9.6%
- Emax ([4]; parameter from QSP model fitting, read-out: Emax_drug_LymP): 0.16%
- viability at 0.0002 µM ([5]; dose 0.2 nM): 102%
- viability at 0.001 µM ([5]; dose 1 nM): 110%
- viability at 0.005 µM ([5]; dose 5 nM): 75.9%
- viability at 0.025 µM ([5]; dose 25 nM): 1.22%
- viability at 0.1 µM ([5]; dose 100 nM): 0.201%
- viability at 0.5 µM ([5]; dose 500 nM): 0.291%
- viability at 2.5 µM ([5]; dose 2500 nM): 0.232%
- activity at 0.0002 µM ([6]; dose 0.2 nM): 105%
- activity at 0.001 µM ([6]; dose 1 nM): 113%
- activity at 0.005 µM ([6]; dose 5 nM): 115%
- activity at 0.025 µM ([6]; dose 25 nM): 75.5%
- activity at 0.1 µM ([6]; dose 100 nM): 47.5%
- activity at 0.5 µM ([6]; dose 500 nM): 40.7%
- activity at 2.5 µM ([6]; dose 2500 nM): 46.1%
- EmaxT effects across cell types (overall statement) [7]: > 1.0
